Test results: a melting point compilation (Tetko et al.; mined from patent text by program, amines drawn as free bases though some values may be those of a salt)

| melting point | Structure (SMILES) |
| --- | --- |
| 213 to 214 °C | N#Cc1c(NC(=O)C2CCCCC2)sc(-c2ccccc2)c1[N+](=O)[O-] |
| 127 °C | CC(C)(Cc1ccc(Cl)cc1)C(=O)Cn1cncn1 |
| 85 to 86 °C | O=[N+]([O-])c1cc(O)c(F)cc1Cl |
| 80 to 97 °C | CC(C(=O)c1ccc(F)cc1F)n1cnc(-c2ccc(OCc3ccccc3)cc2)n1 (centres undefined) |
| 93 °C | Oc1ccc(OCCn2nc3c(n2)CCCC3)cc1 |
| 106 to 108 °C | O=[N+]([O-])C=C(NCc1cccnc1)N1CCCCC1 |
| 156 to 158 °C | O=[N+]([O-])c1ccc(OC2OC(CO)C(O)C2O)cc1 (centres undefined) |
| 76 to 79 °C | COc1ccc(C(=O)Cc2cc(OC)ccc2OC)c(Br)c1 |
| 168 to 169 °C | COC(=O)C1Cc2cc(Br)ccc2N1C(=O)c1ccccc1 (centres undefined) |
| 235 to 249 °C | O=C(O)c1ccc(-c2c([N+](=O)[O-])oc3ccc(-c4ccccc4)cc23)cc1 |
| 190 to 191 °C | Cc1c(C)c(NC(=O)CC(C)(C)C)c2c(c1C)C(c1ccc(C(C)C)cc1)CO2 (centres undefined) |
| 130 to 132 °C | COc1ccc(-c2nccc3c(CC#N)cccc23)cc1 |
| 157 to 158 °C | CC(=O)Nc1cccc(-c2cncnc2)c1 |
| 216 to 217 °C | ON=Cc1ccc(-c2ccc(O)cc2)c2occc12 |
| 118 to 120 °C | CCOC(=O)C(=O)Nc1ccc2ccccc2c1 |
| 159 to 160 °C | Cc1ccc(CNC(=O)c2ccc(F)cc2OCC(=O)O)cc1[N+](=O)[O-] |
| 141 to 143 °C | CCc1cc2c(s1)SCCc1cc(=O)n(-c3ccc(OC)cc3)nc1-2 |
| 113 to 115 °C | CC(=O)c1ccc2ccc3ccccc3c2n1 |
| 151 to 152 °C | CCCC(C)(c1ccc(O)cc1)c1ccc(O)cc1 |
| 144 to 145 °C | O=C1CCOc2cc(S)ccc21 |
| 96 to 98 °C | CCOC(=O)c1ccc(NCC(C)Oc2ccc(F)cc2)cc1 (centres undefined) |
| 94 to 97 °C | OCCCCCCOc1ccc(OCc2ccccc2)cc1 |
| 197 to 198 °C | Cc1oc(-c2ccccc2)nc1COc1ccc(/C=C/C(=O)C(=O)O)cc1 |
| 111 to 113 °C | O=C(c1ccc(OC23CC4CC(CC(C4)C2)C3)cc1)N1CCCC1 |
| 266 to 268 °C | CC(=O)ONC(=N)c1ccc(-c2ccc(-c3ccc(C(=N)NOC(C)=O)nc3)o2)cc1 |
| 131 to 133 °C | COc1ccc(CCCNS(=O)(=O)Cc2ccc3[nH]cc(CC#N)c3c2)cc1 |
| 146 to 147 °C | COc1ccc(C(=O)c2ccc(OCc3nc(-c4ccccc4)oc3C)cc2)c(OCC(=O)O)c1 |
| 108 °C | Cc1noc(NC(=O)c2c(O)ccc3cc(-c4cccc(O)c4)ccc23)c1C |
| 143 to 146 °C | O=C1COCCN1c1ccc(N2C[C@@H](CCl)OC2=O)cc1 |
| 67 to 68 °C | Cc1oc(-c2ccccc2)nc1COc1cccc(C=O)c1 |

The next lines start with the molecule.

| Structure (SMILES) | melting point |
| --- | --- |
| CCOc1cc(C(CC(=O)O)N2Cc3cccc(NC(C)=O)c3C2=O)ccc1OC(F)F (centres undefined) | 105 to 107 °C |
| CCCCCCCN(CCN1CCN(CCSc2nc3ncccc3o2)CC1)C(=O)Nc1c(C(C)C)cc(O)cc1C(C)C | 100 to 102 °C |
| Fc1ccc(F)c(C(Sc2ccc(Cl)cc2)c2ccc(CSc3ccc(Cl)cc3)cn2)c1 (centres undefined) | 87 to 88 °C |
| CCCOc1ccc(S(=O)(=O)NCCc2c[nH]cn2)cc1-c1nc2cc(N)c([N+](=O)[O-])cc2c(=O)[nH]1 | 169 to 172 °C |
| COC(=O)c1cc(-c2ccc(OC)c(F)c2)nn(Cc2ccc(Cl)cc2)c1=O | 170 to 171 °C |
| Cc1ccc2nc(CCl)[nH]c(=O)c2c1 | 263 to 265 °C |
| C[C@H](CN1CC=C(c2cccs2)CC1)Nc1ccccn1 | 63 to 68 °C |
| CC(C)(C)OC(=O)NC(C)(C)c1ccc(-c2ccc3nn(C4CCCCO4)cc3c2-c2cc[nH]n2)cc1 (centres undefined) | 99 to 105 °C |
| CCc1ccc(-c2cc3ncnc(Nc4ccc5[nH]ccc5c4)c3s2)cc1 | 171 to 182 °C |
| CSc1nnc(C(N)(c2ccc(Cl)cc2)c2ccc3nc(C)cc(-c4cccc(Cl)c4)c3c2)n1C (centres undefined) | 128 °C |
| COc1nn2ccccc2c1C(C)=O | 158 °C |
| Cc1n[nH]c([N+](=O)[O-])c1-c1ncc([N+](=O)[O-])n1C | 184 °C |
| O=C1NC(=O)C(Cc2ccc(SCCCc3ccccc3)cc2)S1 (centres undefined) | 88 to 89 °C |
| CCOc1c(OC)cc(N)cc1OC | 88 to 89 °C |
| CSCCC(NCc1cc(Br)cc(Br)c1N)C(=O)O (centres undefined) | 212 °C |
| CC(=O)OC1CCC2(CO)C(CCC3C4=CCC(OC(=O)C(C)(C)C)C4(C)CCC32)C1 (centres undefined) | 133 to 134 °C |
| CC1(C)CCC(C)(C)c2cc(-c3cc(-c4ccc(CO)cc4)ccc3-c3ccccc3)ccc21 | 134 to 136 °C |
| O=C(NCCCCCCNC(=O)Nc1cccnc1)Nc1cccnc1 | 197 to 199 °C |
| CC(=O)OCc1c(C(=O)C(=O)O)c2cc(-c3cccc(C)c3)ccc2n1Cc1ccc(C(C)(C)C)cc1 | 91 to 92 °C |
| CC(COc1ccc(CC2SC(=O)N(C(c3ccccc3)(c3ccccc3)c3ccccc3)C2=O)cc1)N1CC(COc2cccc(Cl)c2)OC1=O (centres undefined) | 74 to 81 °C |
| CC(=O)OC1CCC(NC(=O)Nc2ccccc2CCc2cc(C(C)(C)C)c(O)c(C(C)(C)C)c2)CC1 (centres undefined) | 92 to 94 °C |
| CC(c1oc2ccccc2c(=O)c1-c1cccc(F)c1)n1nc(-c2ccc3[nH]ccc3c2)c2c(N)ncnc21 (centres undefined) | 197 to 199 °C |
| C1=C(c2c[nH]c3ccccc23)CCN(CC2COc3ccc4c(c3O2)CCO4)C1 (centres undefined) | 207 to 209 °C |

| Structure (SMILES) | melting point |
| --- | --- |
| CCOC(=O)c1nnc2ccc(NC3=CC(=O)CC(C)(C)C3)cc2c1O | 274 °C |
| COCCCN1C[C@H](O)c2cc(S(N)(=O)=O)sc2S1(=O)=O | 109 to 111 °C |
| CC(=O)OCCn1nc(-c2cc(C(C)(C)C)c(O)c(C(C)(C)C)c2)c2ccc(C)nc21 | 102 to 103 °C |
| Cc1cc2ccc3c(c2o1)OC(CN1CC=C(c2c[nH]c4ccccc24)CC1)CO3 (centres undefined) | 198 to 200 °C |
| CCCCCC(CC(=O)Nc1cc(C(=O)NC(=O)C(C)(C)C)ccc1C(C)(C)C)c1ccc(OC)cc1OC (centres undefined) | 170 to 172 °C |
| C#CCOc1cc2c(cc1F)CCC2CCNC(=O)CC (centres undefined) | 78 to 81 °C |
| Cc1ccccc1-c1ccc(Br)cc1C=O | 71 to 73 °C |
| COc1cc2nc(N3CCN(C(=O)CC(O)c4ccccc4)CC3)nc(N)c2cc1OC (centres undefined) | 222 °C |
| CCOc1cc(N)c(Cl)cc1C(=O)NCC1CN(Cc2ccccc2)CCCO1 (centres undefined) | 180 to 183 °C |
| O=C(O)c1snc(-c2ccc(Cl)c(Cl)c2)c1C(=O)O | 188 °C |
| CC(C)C1(n2cccn2)CN(C(=O)O)N=C1c1ccc(F)cc1 (centres undefined) | 125 °C |
| CCCCCCCCCCCCCCCCCCNC(=O)NCCN | 108 to 127 °C |
| CC(COc1ccc2c(c1)CC/C(=C\c1cccs1)C2=O)n1ccnc1 (centres undefined) | 160 to 162 °C |
| Cc1ccccc1Sc1c(O)c2c(Cl)cc(Cl)cc2[nH]c1=O | > 300 °C |
| Cn1cncc1C(O)(c1ccc(-c2ccc(Cl)cc2)cc1)c1ccc2c(c1)c(-c1cccc(Cl)c1)cc(=O)n2C (centres undefined) | 236 °C |
| CC1(C)OC(=S)N(c2cc(C#N)ccc2F)c2ccccc21 | 250 to 251 °C |
| C[C@@H]1CN(c2c(F)c(N)c3c(=O)c(C(=O)O)cn(C4CC4)c3c2F)C[C@H](C)N1 | 258 to 260 °C |
| CCCNc1nc(N)n[nH]1 | 148 to 149 °C |
| CSC(c1ccc(Cl)cc1)C(C(O)C(C)(C)C)n1cncn1 (centres undefined) | 58 to 60 °C |
| Cc1ccccc1C1(O)C=C(C(C)(C)C)C(=O)C(C(C)(C)C)=C1 | 168 to 171 °C |
| COc1cc2oc(=O)c(CCO)c(C)c2cc1O | 229 to 235 °C |
| CCCCCC(=O)CCC1C(=O)NC(=O)N1CCCCCCC(=O)O (centres undefined) | 84.5 to 86 °C |
| O=C(CC(c1ccccc1)(c1ccccc1)c1ccccc1)N1CC2=C(C1)c1cccc3cccc2c13 | 159 to 168 °C |

| Structure (SMILES) | melting point |
| --- | --- |
| O=C(CCCc1ccccc1)N[C@H](Cc1ccc(C(F)(F)F)cc1)[C@@H](O)c1ccc(F)cc1 (racemic) | 150 to 151 °C |
| CC(C)N1Cc2cc(C(=O)O)ccc2N(CCN2CC=C(c3c[nH]c4cc(F)ccc34)CC2)S1(=O)=O | 193 to 194 °C |
| CC(CCl)CCCC(C)C1CCC2C3=CC=C4C(C)(C)C(O[Si](C)(C)C(C)(C)C)CCC4(C)C3CCC21C (centres undefined) | 114 to 116 °C |
| COc1cc2c(Nc3ccc(Cl)cc3F)ncnc2cc1OCCCn1ccccc1=O | 216 to 218 °C |
| CCOC(=O)c1c(C(=O)O)ccc(OC)c1OC | 148 to 149 °C |
| CC(=O)OCC(=O)C1(O)C(C)CC2C3CCC4CC(=O)CCC4(C)C3CCC21C (centres undefined) | 125 °C |
| COc1ccc2c(c1)c(-c1cc3c(OC)ccnc3[nH]1)cn2C | 288 to 289 °C |
| C=CCn1c(NCc2cccnc2)nc(N2CCc3ccccc3CC2)c(C#N)c1=O | > 200 °C |
| COc1ccc(C(=O)Nc2nc(-c3ccccc3)c(-c3ccc(=O)n(C(C)C)n3)s2)cc1 | 219 to 221 °C |
| COC(=O)C(ON1C(C)(C)CCCC1(C)C)c1ccccc1 (centres undefined) | 83 to 86 °C |
| CCCn1cc(C(=O)O)c(=O)c2cnc(N3CCNCC3)nc21 | 259 to 261 °C |
| CCOC(=O)c1cc(-c2ncc(Cl)cc2F)nn1C | 117 to 118 °C |
| Cc1c(C)c(N2C(=O)c3cc(Cl)c(Cl)cc3C2=O)c(C)c2c1OC(C)(C)C2c1ccc(C(C)C)cc1 (centres undefined) | 237 to 239 °C |
| CCCCn1cc(C(=O)Nc2nccs2)c2ccc(Cl)cc21 | 168 to 169 °C |
| Cc1cc2ccccc2n1Nc1ccncc1 | 75 to 78 °C |
| O=c1[nH]c2ccccc2n1CCCN1CCC(c2nsc3ccccc23)CC1 | 185 to 187 °C |
| CC(C)Nc1nc(Br)cnc1OCC(O)CBr (centres undefined) | 108 to 109 °C |
| O=C(O)c1ccc(C2=NOC(c3cc(Cl)cc(Cl)c3)(C(F)(F)F)C2)cc1 (centres undefined) | 237 to 240 °C |
| CC1CCC2(C)C(=CCC3C2CCC2(C)C(C(=O)CN)CCC32)C1 (centres undefined) | 139 °C |
| NC(=O)c1ccc2[nH]nnc2c1 | 178 to 184 °C |
| Nc1nc(-c2ccc(CCN3CCN(c4cccc5ccccc45)CC3)cc2)cs1 | 274 to 277 °C |
| O=C(NCCCl)NCc1cccnc1 | 95 °C |
| Cc1cc(N)c([N+](=O)[O-])cc1OS(C)(=O)=O | 128 °C |
